From doi:10.1101/2025.09.11.675743v1 (biorxiv, 2025)

Each compound was assayed against T1, recombinant human TREM2 protein (Homo sapiens, UniProt Q9NZC2) (assay: microscale thermophoresis).
T1 sequence (Q9NZC2 19-174 limits assumed): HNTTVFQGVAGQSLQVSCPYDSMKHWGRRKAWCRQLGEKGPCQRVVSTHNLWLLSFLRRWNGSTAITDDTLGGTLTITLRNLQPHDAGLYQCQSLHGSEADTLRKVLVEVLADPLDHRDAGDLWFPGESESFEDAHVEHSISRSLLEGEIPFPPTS
Assay type: binding

SMILES	Kd [nM]
c1ccc(Nc2nc(-c3c[nH]c4ccccc34)cs2)nc1 [T2K-014]	28900 ± 1740
c1ccc(Nc2nc(-c3c[nH]c4ccccc34)cs2)cc1 [T2M-002]	50800 ± 3740
c1ccc2c(-c3csc(NC4CC4)n3)c[nH]c2c1 [T2M-003]	1350 ± 160
c1ccc(CCNc2nc(-c3c[nH]c4ccccc34)cs2)cc1 [T2M-010]	830 ± 100
CNc1nc(-c2c[nH]c3ccccc23)cs1 [T2M-016]	2440 ± 300

What follows are compounds tested against hERG (Homo sapiens, UniProt Q12809) (assay: hERG safety counterscreen).
Assay type: cell-based

hERG, sequence (Q12809 whole entry): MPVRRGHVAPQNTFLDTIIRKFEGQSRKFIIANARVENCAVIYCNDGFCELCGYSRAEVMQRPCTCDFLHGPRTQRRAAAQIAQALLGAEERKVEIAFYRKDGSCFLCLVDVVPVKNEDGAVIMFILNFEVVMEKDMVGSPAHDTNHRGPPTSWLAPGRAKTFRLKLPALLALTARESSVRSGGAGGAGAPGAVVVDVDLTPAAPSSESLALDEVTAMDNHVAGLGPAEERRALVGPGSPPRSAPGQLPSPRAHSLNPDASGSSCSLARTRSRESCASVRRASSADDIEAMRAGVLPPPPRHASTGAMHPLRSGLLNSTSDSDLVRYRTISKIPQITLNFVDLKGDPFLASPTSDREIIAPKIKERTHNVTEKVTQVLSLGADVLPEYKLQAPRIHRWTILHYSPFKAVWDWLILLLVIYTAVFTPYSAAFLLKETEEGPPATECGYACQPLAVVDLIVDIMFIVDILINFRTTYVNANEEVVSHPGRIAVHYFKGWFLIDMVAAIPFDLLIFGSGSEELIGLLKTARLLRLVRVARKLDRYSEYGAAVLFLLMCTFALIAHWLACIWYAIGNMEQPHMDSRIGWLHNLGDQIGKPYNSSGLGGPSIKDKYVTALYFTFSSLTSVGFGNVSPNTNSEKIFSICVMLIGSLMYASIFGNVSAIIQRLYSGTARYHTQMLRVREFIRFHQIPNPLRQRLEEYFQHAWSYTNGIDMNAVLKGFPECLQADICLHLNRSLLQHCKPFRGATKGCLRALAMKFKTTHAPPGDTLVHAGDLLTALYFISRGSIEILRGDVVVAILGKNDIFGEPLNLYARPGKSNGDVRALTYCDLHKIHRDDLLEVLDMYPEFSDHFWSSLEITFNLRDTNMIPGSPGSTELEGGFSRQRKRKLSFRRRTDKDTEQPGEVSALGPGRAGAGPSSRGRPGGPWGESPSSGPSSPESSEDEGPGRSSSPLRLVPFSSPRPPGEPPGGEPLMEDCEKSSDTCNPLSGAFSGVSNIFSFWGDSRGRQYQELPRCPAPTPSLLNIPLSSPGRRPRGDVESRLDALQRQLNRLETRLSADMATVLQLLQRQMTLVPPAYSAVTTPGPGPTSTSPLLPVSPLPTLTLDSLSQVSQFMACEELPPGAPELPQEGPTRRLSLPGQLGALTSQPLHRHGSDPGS

SMILES	IC50 [nM]
c1ccc(CCNc2nc(-c3c[nH]c4ccccc34)cs2)cc1 [T2M-010]	> 60000
